Laboratory results published in ChEMBL document CHEMBL1156829 (Proc Natl Acad Sci U S A, 2008).

Assays:
Plasmodium falciparum [1] = assay: NOVARTIS: Inhibition of Plasmodium falciparum W2 (drug-resistant) proliferation in erythrocyte-based infection assay; assay type: functional, organism-based; settings: Plasmodium falciparum, W2; read-out: EC50
[2] = NOVARTIS: Cytotoxicity against human hepatocellular carcinoma cell line (Huh7); assay type: toxicity, cell-based, Huh-7; settings: Huh7 cells (hepatocellular carcinoma cell line)
Plasmodium falciparum [3] = assay: NOVARTIS: Inhibition of Plasmodium falciparum 3D7 (drug-susceptible) proliferation in erythrocyte-based infection assay; assay type: functional, organism-based; settings: Plasmodium falciparum, 3D7

Structure (SMILES) | EC50 (Plasmodium falciparum [1]) | CC50 [2] | EC50 (Plasmodium falciparum [3])
CCCCNC(=O)C(c1cccc(OC)c1)N1C(=O)c2cc(OCCc3cccc(OC)c3)ccc2NC(=O)C1CO (stereo not drawn) | 0.0429 µM | > 10 µM | 0.11 µM
Nc1nc(N)c2cc(S(=O)(=O)N3CCCC3)ccc2n1 | > 1.25 µM | 12.9 µM | 0.0585 µM
COc1ccc(C2CC(=O)C3=C(C2)NC(C)=C(C(=O)OC(C)C)C3c2cccc(Cl)c2Cl)cc1OC (stereo not drawn) | 0.0181 µM | > 87.3 µM | 0.0676 µM
CN(C)C(=O)CN(C)C(=O)c1cnc2scc(C(C)(C)C)n2c1=O | > 1.25 µM | > 10 µM | > 0.82 µM
CCCCN1C(=O)/C(=C/N(C(=O)CC)c2ccccc2)SC1=S | > 0.853 µM | > 10 µM | > 0.699 µM
CCN1CCN(Cc2c(O)ccc3c(=O)c(Oc4cccc(C)c4)c(C(F)(F)F)oc23)CC1 | 0.161 µM | > 100 µM | 1.13 µM
Fc1ccc(-c2cn3c([n+]2-c2ccccc2)SCC3)cc1 | 0.713 µM | > 100 µM | 1.09 µM
CCC[n+]1ccc(/C=C/c2ccc(Br)cc2)cc1 | 0.382 µM | > 10 µM | 0.645 µM
Clc1ccc(CCNC2CCN(CCc3ccccc3)CC2)cc1 | 0.696 µM | 9.6 µM | 0.15 µM
NC(=O)Cc1ccccc1 | 9.5 µM | > 100 µM | > 12.5 µM
N#Cc1c(NC(=O)CCl)c(C(=O)c2ccccc2)n2c1CCC2 | > 12.5 µM | > 74.2 µM | 0.298 µM
CCN(CC)CCNc1nc(C=Cc2ccc(Cl)cc2)nc2cc3ccccc3cc12 | 0.193 µM | 22.5 µM | 0.128 µM
Cc1cc(C)nc(SCc2cc(=O)c(OC(=O)c3cccc([N+](=O)[O-])c3C)co2)n1 | > 7.47 µM | > 100 µM | > 12.5 µM
CCCN1CCc2c(sc3nc(SCC(=O)OC)nc(N)c23)C1 | 0.71 µM | > 100 µM | 1.66 µM
Cc1ccc(C(C(=O)NC2CCCCC2)N(C(=O)c2ccc(-c3ccccc3)[nH]2)c2ccc(C3CCCCC3)cc2)o1 (stereo not drawn) | 1.47 µM | > 100 µM | 1.17 µM
CCN(CC)C/C=C/C1(O)c2ccccc2-c2ccccc21 | 0.221 µM | > 10 µM | 1.01 µM
O=C(Nc1cccnc1)c1cc(-c2cccnc2)nc2ccc(Br)cc12 | 2.14 µM | > 100 µM | > 12.5 µM
CCOC(=O)c1[nH]c(C)c(CNc2cccc(F)c2)c1C | 1.66 µM | > 10 µM | 1.06 µM
CC12CN3CC(C)(CN(C1)C3c1ccccc1)C2=O (stereo not drawn) | > 10 µM | > 100 µM | > 11.2 µM
COc1ccc(S(=O)(=O)NCC2CCC(C(=O)NCC(OC)OC)CC2)cc1 (stereo not drawn) | > 1.25 µM | > 10 µM | > 1.19 µM
Cc1c(Cl)cccc1NC(=O)CCC(=O)NNC(=O)c1ccccc1 | > 1.25 µM | > 10 µM | > 1.01 µM
CCCNC(=O)c1cc(NC(=O)c2cc(C(F)(F)F)cc(C(F)(F)F)c2)ccc1N1CCCCC1 | > 0.816 µM | 10.2 µM | > 1.56 µM
O=C1N(Cc2cc3ccccc3s2)CC2CN(Cc3ccoc3)CCN12 (stereo not drawn) | 0.619 µM | > 10 µM | 1.08 µM
Nc1nc(N)c2cc(S(=O)(=O)N3CCCCC3)ccc2n1 | > 1.25 µM | 2.67 µM | 0.0202 µM

Structure (SMILES) | EC50 (Plasmodium falciparum [1]) | CC50 [2] | EC50 (Plasmodium falciparum [3])
CC(C)NC(=O)c1cn(Cc2ccccc2)cc(C(=O)NCCc2nc3ccccc3[nH]2)c1=O | 2.22 µM | > 100 µM | 3.34 µM
CCCN1CCC(N2CCCC(c3[nH]ncc3-c3cccc(C(F)(F)F)c3)C2)CC1 (stereo not drawn) | 0.448 µM | > 10 µM | 0.757 µM
C=C[C@H]1CN2CC[C@H]1C[C@@H]2[C@@H](OC(=O)c1ccco1)c1ccnc2ccccc12 | 0.104 µM | > 10 µM | 0.149 µM
OCc1nc2ccccc2n1Cc1ccccc1F | 1.45 µM | > 10 µM | > 1.64 µM
CCn1c(SCC(=O)Nc2ccc(OC)cc2)nc2ccsc2c1=O | 0.475 µM | > 11.7 µM | > 1.25 µM
CCOC(=O)C1CCCN(C(=O)c2c(C)oc3c2C(=O)c2ccccc2C3=O)C1 (stereo not drawn) | 0.163 µM | 20.4 µM | 0.171 µM
Clc1cccc(C(Nc2cccnc2)(c2ccccc2)c2ccccc2)c1 | 1.19 µM | > 10 µM | 0.618 µM
O=C(CSc1nc2ccccc2[nH]1)Nc1ccc(Cl)cc1Cl | > 1.25 µM | > 10 µM | > 0.79 µM
Cc1ccc(NC(=O)c2sc3nc4c(c(-c5ccc(C)cc5)c3c2N)CCC4)cc1 | 8.94 µM | > 100 µM | 2.79 µM
COc1ccc(C=NNc2cc(C)nc(-c3ccccc3)n2)cc1OC | 3.3 µM | 48.9 µM | 8.51 µM
CCOC(=O)C1=C(C(=O)OCC)SC(=C2C(=S)C(C)(C)N(C(=O)c3cccc(F)c3)c3cc(C)ccc32)S1 | > 1.4 µM | > 100 µM | > 7.52 µM
Cc1ccc(-c2cn3c([n+]2-c2ccccc2)SCC3)cc1 | 0.309 µM | > 100 µM | 0.427 µM
O=c1[nH]c(SCC(O)c2ccc(Cl)c(Cl)c2)nc2sc3ccccc3c12 (stereo not drawn) | 0.124 µM | > 10 µM | 0.663 µM
Brc1ccc2c(c1)c1ccccc1n2CC1CO1 (stereo not drawn) | 2.25 µM | 29.4 µM | 4.73 µM
CCOC(=O)CN(N=O)C1=C(N2CC2)C(=O)c2ccccc2C1=O | 3.85 µM | 25.4 µM | 0.206 µM
O=C(C=Cc1cccnc1)C12CC3CC(CC(C3)C1)C2 | 0.122 µM | > 100 µM | 0.215 µM
Cc1ccc(-c2nn(CC(=O)Nc3ccc(OC(F)(F)F)cc3)c(=O)c3ccccc23)cc1S(=O)(=O)N1CCCCC1 | 1.92 µM | > 10 µM | > 1.25 µM
CCc1ccccc1NC(C)=O | 5.41 µM | > 100 µM | > 12.5 µM
O=C(/C=C/c1ccccc1)c1c(-c2ccccc2)c2cc([N+](=O)[O-])ccc2[nH]c1=O | > 0.976 µM | > 10 µM | > 1.64 µM
Oc1c(C(Nc2ccccn2)c2ccc(Cl)cc2Cl)ccc2cccnc12 (stereo not drawn) | 0.16 µM | > 10 µM | > 1.3 µM
COc1cc(-c2nc(-c3ccccc3)c(-c3cccc(C(F)(F)F)c3)[nH]2)cc(OC)c1O | 0.902 µM | 44.9 µM | 0.622 µM
C[N+]1(CCOC(=O)CCC(=O)OCC[N+]2(C)CCCCCC2)CCCCCC1 | > 1.25 µM | > 10 µM | > 0.479 µM
Clc1ccc2c(NC3CCCCCCC3)ccnc2c1 | 0.881 µM | > 13.7 µM | 1.04 µM
COc1cc(Nc2nccn3c(-c4ccsc4)cnc23)cc(OC)c1OC | 1.65 µM | > 10 µM | > 1.25 µM

Structure (SMILES) | EC50 (Plasmodium falciparum [1]) | CC50 [2] | EC50 (Plasmodium falciparum [3])
O=C1CSC(=NN=Cc2cccnc2)N1c1ccccc1 | 2.49 µM | > 100 µM | > 12.5 µM
NC(=O)C1CCCN(C(=O)COC(c2ccccc2)c2cccnc2Cl)C1 (stereo not drawn) | > 12.5 µM | 45.6 µM | 4.81 µM
COc1cccc(CNC(=O)Cn2ncc3c(=O)oc4ccc(C)cc4c32)c1 | 1.76 µM | > 10 µM | > 1.73 µM
Cc1cc2cc(C3C(C#N)=C(N)Oc4c3ccc3ccccc43)c(Cl)nc2cc1Cl (stereo not drawn) | 0.629 µM | > 100 µM | 0.24 µM
O=C(CN1CCCC1C(c1ccccc1)c1ccccc1)N1CCSCC1 (stereo not drawn) | > 1.08 µM | 12 µM | > 1.25 µM
COc1ccc(C2N=C(N)N=C(N)N2c2ccc(Cl)cc2)cc1OC (stereo not drawn) | > 1.25 µM | > 10 µM | 0.326 µM
CCN(CC)CCN1C(=O)c2ccccc2NC1c1ccc(C)cc1 (stereo not drawn) | 1.05 µM | > 100 µM | 0.858 µM
Cc1ccccc1CSc1ccc(-c2cccs2)nn1 | 0.963 µM | > 10 µM | > 1.05 µM
COc1ccc(-n2nc(C(=O)NCC(=O)Nc3nc4ccccc4s3)c3ccccc3c2=O)cc1Cl | > 1.13 µM | > 10 µM | > 1.25 µM
COc1ccccc1/C=C/C1=NC(=C\c2ccc(SC)cc2)/C(=O)O1 | 0.228 µM | > 10 µM | > 1.25 µM
CN(C)CCNC(=O)c1ccc(-c2cncc(NCc3ccc(Cl)c(Cl)c3)c2)cc1 | 0.284 µM | 10.3 µM | 0.64 µM
CN(CCCNc1ccnc2cc(Cl)ccc12)C(=O)CCc1ccccc1 | 0.187 µM | > 12.1 µM | 0.136 µM
COc1cc(OC)cc(C(=O)N2CCC(C(=O)Nc3cccc4ccccc34)CC2)c1 | 0.485 µM | > 10 µM | > 0.481 µM
CCOc1cc(C2CC(=O)NC3=C2C(=O)CC(C)(C)C3)ccc1OC(C)C (stereo not drawn) | 0.137 µM | > 100 µM | 0.284 µM
O=[N+]([O-])c1ccc(C=NNc2nc3ccccc3[nH]2)cc1 | 0.742 µM | > 100 µM | 0.818 µM
CCc1ccc(C=NNC(=O)COc2ccc3c(c2)OCO3)cc1 | > 0.975 µM | > 10 µM | > 1.23 µM
COc1ccc(-c2cnnc(NN=Cc3ccc([N+](=O)[O-])o3)n2)cc1 | > 0.464 µM | > 10 µM | > 1.25 µM
COc1ccc(CNC(=O)C2CNCC2c2ccc(C(F)(F)F)cc2)cc1 (stereo not drawn) | 0.0857 µM | 24.1 µM | 0.165 µM
COc1ccc(/C=C/C(=O)NC(=O)c2ccccc2O)cc1OC | 1.13 µM | > 10 µM | 1.08 µM
O=c1c2sccc2nc(SCc2cccc([N+](=O)[O-])c2)n1-c1ccc(Br)cc1 | 1.02 µM | > 100 µM | 3.31 µM
COc1cc(C=C2CCC(=Cc3cc(OC)c(OC)c(OC)c3)C2=O)cc(OC)c1OC | 2.75 µM | > 100 µM | 2.21 µM
O=C(NNc1ccccc1F)C1CCC1 | 0.0406 µM | > 10 µM | 0.49 µM
CC(C)(C)CC(=O)NCc1ccc(OC2CCN(CC(c3ccccc3)c3ccccc3)CC2)cc1 | < 0.00877 µM | > 10 µM | 1.16 µM
